The values that follow come from patent US12668599B2, “Heterobifunctional compounds and methods of treating disease” (Halda Therapeutics OpCo, Inc., priority 2023, dated 2026).

Assay [1] concerns VCaP cells. The experiment in a line: Cellular growth inhibition assay for VCaP cells (CellTiter-Glo 2.0, 72 hours). Particulars: CellTiter-Glo 2.0. The format is cell-based, human. For orientation: ATP-based viability assays read luminescence as a measure of living cells.
Assay [2] has as its system T-Rex 293 cell line SC3 cells having increased expression of androgen receptor protein due to exposure to doxycycline. The experiment in a line: Cellular growth inhibition, T-Rex 293 SC3 cells with doxycycline-induced androgen receptor (CellTiter-Glo 2.0, 72 hours). The assay is classed as cell-based. Particulars: T-Rex 293 SC3 cells with 10 ng/ml doxycycline (increased androgen receptor expression), 72 hours, CellTiter-Glo 2.0.

The test system of assay [3] is T-Rex 293 cell line SC3 cells lacking increased expression of androgen receptor protein. Put plainly: Cellular growth inhibition, T-Rex 293 SC3 cells without doxycycline (CellTiter-Glo 2.0, 72 hours). The format is cell-based. Particulars: T-Rex 293 SC3 cells not exposed to doxycycline (no increased androgen receptor expression).

As to `COC[C@@H]1N=C(c2ccc(C3CCC4(CC3)CCN(c3ccc(C(=O)NC5CCC(Oc6ccc(C#N)c(OC)c6)CC5)nn3)C4)cc2)c2c(sc(C)c2C)-n2c(C)nnc21` (stereo partly drawn) [Compound I-27, N-[4-(4-cyano-3-methoxy-phenoxy)cyclohexyl]-6-[8-[4-[(9R)-9-(methoxymethyl)-4,5,13-trimethyl-3-thia-1,8,11,12-tetrazatricyclo[8.3.0.0^2,6]trideca-2 (6),4,7,10,12-pentaen-7-yl]phenyl]-2-azaspiro[4.5]decan-2-yl]pyridazine-3-carboxamide], the GI50 in assay [1] (Homo sapiens, VCaP, 72 h) was less than 500 nM; in assay [2], less than 500 nM; in assay [3] (72 h) it was less than 500 nM.
As to `COC[C@@H]1N=C(c2ccc(C#CC3CC4(C3)CN(c3ccc(C(=O)N[C@H]5CC[C@H](Oc6ccc(C#N)c(OC(F)(F)F)c6)CC5)nn3)C4)cc2)c2c(sc(C)c2C)-n2c(C)nnc21` [Compound I-8, N-[4-[4-cyano-3-(trifluoromethoxy)phenoxy]cyclohexyl]-6-[6-[2-[4-[(9R)-9-(methoxymethyl)-4,5,13-trimethyl-3-thia-1,8,11,12-tetrazatricyclo[8.3.0.0^2,6]trideca-2 (6),4,7,10,12-pentaen-7-yl]phenyl]ethynyl]-2-azaspiro[3.3]heptan-2-yl]pyridazine-3-carboxamide], the GI50 in assay [1] (Homo sapiens, VCaP, 72 h) was less than 500 nM; in assay [2] it was less than 500 nM; in assay [3] (72 h), less than 500 nM.
With `COc1cc(O[C@H]2CC[C@H](NC(=O)c3ccc(N4CCC5(CCN(c6ccc(C7=N[C@@H](C)c8nnc(C)n8-c8sc(C)c(C)c87)c(F)c6)C5)C4)nn3)CC2)ccc1C#N` (stereo partly drawn) [Compound I-93], the concentration for 50% growth inhibition (GI50) in assay [1] (72 hours), in assay [2] and in assay [3] was less than 500 nM in each case.
As to `COc1cc(O[C@H]2CC[C@H](NC(=O)c3ccc(N4CCC5(CCC(Oc6ccc(C7=N[C@@H](C)c8nnc(C)n8-c8sc(C)c(C)c87)cc6)C5)C4)nn3)CC2)ccc1C#N` (single isomer, unassigned) [Compound I-49], the GI50 was less than 500 nM in assay [1] (Homo sapiens, VCaP, 72 h); less than 500 nM in assay [2]; less than 500 nM in assay [3] (72 h).
For the compound `COc1cc(O[C@H]2CC[C@H](NC(=O)c3ccc(N4CCC5(CCC(c6ccc(C7=N[C@@H](C)c8nnc(C)n8-c8sc(C)c(C)c87)cc6)C5)CC4)nn3)CC2)ccc1C#N` (stereo partly drawn) [Compound I-22], the GI50 was 500 to 1500 nM in assay [1] (Homo sapiens, VCaP, 72 h); less than 500 nM in assay [2]; less than 500 nM in assay [3] (72 h).
With `COc1cc(O[C@H]2CC[C@H](NC(=O)c3ccc(N4CCC5(CCC(c6ccc(C7=N[C@@H](C)c8nnc(C)n8-c8sc(C)c(C)c87)nc6)CC5)C4)nn3)CC2)ccc1C#N` (stereo partly drawn) [Compound I-89], the GI50 in assay [1] (72 hours) is 500 to 1500 nM; in assay [2], less than 500 nM; in assay [3] it was less than 500 nM.
As to `COc1cc(O[C@H]2CC[C@H](NC(=O)c3ccc(N4CCC5(CCCN(c6ccc(C7=N[C@@H](C)c8nnc(C)n8-c8sc(C)c(C)c87)cc6)C5)CC4)nn3)CC2)ccc1C#N` [Compound I-81, N-((1r,4r)-4-(4-cyano-3-methoxyphenoxy)cyclohexyl)-6-(2-(4-((S)-2,3,6,9-tetramethyl-6H-thieno[3,2-f][1,2,4]triazolo[4,3-a][1,4]diazepin-4-yl)phenyl)-2,9-diazaspiro[5.5]undecan-9-yl) pyridazine-3-carboxamide], the GI50 in assay [1] (Homo sapiens, VCaP, 72 h) is less than 500 nM; in assay [2], less than 500 nM; in assay [3] (72 h) it was less than 500 nM.
Take `COc1cc(O[C@H]2CC[C@H](NC(=O)c3ccc(N4CCCC5(CCC(c6ccc(C7=N[C@@H](C)c8nnc(C)n8-c8sc(C)c(C)c87)cc6)CC5)C4)nn3)CC2)ccc1C#N` (stereo partly drawn) [Compound I-24]: the GI50 was less than 500 nM in assay [1] (Homo sapiens, VCaP, 72 h); less than 500 nM in assay [2]; 1500 to 3000 nM in assay [3] (72 h).
On to `COc1cc(O[C@H]2CC[C@H](NC(=O)c3ccc(N4CCC5(CC4)CC(Oc4ccc(C6=N[C@@H](Cc7ncco7)c7nnc(C)n7-c7sc(C)c(C)c76)c(F)c4)C5)nn3)CC2)ccc1C#N` [Compound I-128, N-[4-(4-cyano-3-methoxy-phenoxy)cyclohexyl]-6-[2-[3-fluoro-4-[(9S)-4,5,13-trimethyl-9-(oxazol-2-ylmethyl)-3-thia-1,8,11,12-tetrazatricyclo[8.3.0.0^2,6]trideca-2 (6),4,7,10,12-pentaen-7-yl]phenoxy]-7-azaspiro[3.5]nonan-7-yl]pyridazine-3-carboxamide], for which the GI50 in assay [1] (Homo sapiens, VCaP, 72 h) is less than 500 nM; in assay [2], less than 500 nM; in assay [3] (72 h), less than 500 nM.
As for `COCC[C@@H]1N=C(c2ccc(C#CC3CC4(C3)CN(c3ccc(C(=O)N[C@H]5CC[C@H](Oc6ccc(C#N)c(OC(F)(F)F)c6)CC5)nn3)C4)cc2)c2c(sc(C)c2C)-n2c(C)nnc21` [Compound I-33], the GI50 in assay [1] (72 hours), in assay [2] and in assay [3] was less than 500 nM each time.
With `CC[C@@H]1N=C(c2ccc(C#CC3CC4(C3)CN(c3ccc(C(=O)N[C@H]5CC[C@H](Oc6ccc(C#N)c(OC(F)(F)F)c6)CC5)nn3)C4)cc2)c2c(sc(C)c2C)-n2c(C)nnc21` [Compound I-6, N-[4-[4-cyano-3-(trifluoromethoxy)phenoxy]cyclohexyl]-6-[6-[2-[4-[(9S)-9-ethyl-4,5,13-trimethyl-3-thia-1,8,11,12-tetrazatricyclo[8.3.0.0^2,6]trideca-2 (6),4,7,10,12-pentaen-7-yl]phenyl]ethynyl]-2-azaspiro[3.3]heptan-2-yl]pyridazine-3-carboxamide], the GI50 was less than 500 nM in assay [1] (Homo sapiens, VCaP, 72 h); less than 500 nM in assay [2]; less than 500 nM in assay [3] (72 h).
Regarding `COc1cc(O[C@H]2CC[C@H](NC(=O)c3ccc(N4CCC5(CCN(c6ccc(C7=N[C@@H](C)c8nnc(C)n8-c8sc(C)c(C)c87)cc6)C5)CC4)nn3)CC2)ccc1C#N` [Compound I-23], the GI50 was greater than 3000 nM in assay [1] (Homo sapiens, VCaP, 72 h); greater than 3000 nM in assay [2]; less than 500 nM in assay [3] (72 h).
Take `COc1cc(O[C@H]2CC[C@H](NC(=O)c3ccc(N4CCC5(CCN(c6ccc(C7=NC(Cc8ncco8)c8nnc(C)n8-c8sc(C)c(C)c87)cc6C(F)(F)F)CC5)C4)nn3)CC2)ccc1C#N` (stereo partly drawn) [Compound I-126]: the GI50 was greater than 3000 nM in assay [1] (72 hours), less than 500 nM in assay [2] and greater than 3000 nM in assay [3].
Take `COc1cc(O[C@H]2CC[C@H](NC(=O)c3ccc(N4CCC5(CCC(Oc6ccc(C7=N[C@@H](C)c8nnc(C)n8-c8sc(C)c(C)c87)cc6)C5)C4)nn3)CC2)ccc1C#N` (stereo partly drawn) [Compound I-52]: the GI50 in assay [1] (72 hours), in assay [2] and in assay [3] was less than 500 nM each time.
As for `COc1cc(O[C@H]2C(C)(C)[C@@H](NC(=O)c3cnc(N4CCC5(CC4)CC(Oc4ccc(C6=NC(Cc7ncco7)c7nnc(C)n7-c7sc(C)c(C)c76)cc4)C5)nc3)C2(C)C)ccc1C#N` (stereo partly drawn) [III-3, N-[(1r,3s)-3-(4-cyano-3-methoxy-phenoxy)-2,2,4,4-tetramethyl-cyclobutyl]-2-[2-[4-[4,5,13-trimethyl-9-(oxazol-2-ylmethyl)-3-thia-1,8,11,12-tetrazatricyclo[8.3.0.0^2,6]trideca-2 (6),4,7,10,12-pentaen-7-yl]phenoxy]-7-azaspiro[3.5]nonan-7-yl]pyrimidine-5-carboxamide], the concentration for 50% growth inhibition (GI50) is less than 500 nM in assay [1] (Homo sapiens, VCaP, 72 h); less than 500 nM in assay [2]; less than 500 nM in assay [3] (72 h).
Turning to `COc1cc(O[C@H]2CC[C@H](NC(=O)c3ccc(N4CCC5(CCCN(c6ccc(C7=N[C@@H](C)c8nnc(C)n8-c8sc(C)c(C)c87)cc6)C5)C4)nn3)CC2)ccc1C#N` (stereo partly drawn) [Compound I-99], the GI50 in assay [1] (72 hours), in assay [2] and in assay [3] was less than 500 nM throughout.
Take `COc1cc(O[C@H]2CC[C@H](NC(=O)c3cnc(N4CCC5(CCC(c6ccc(C7=N[C@@H](C)c8nnc(C)n8-c8sc(C)c(C)c87)cc6)CC5)C4)cn3)CC2)ccc1C#N` (stereo partly drawn) [Compound I-54, N-[4-(4-cyano-3-methoxy-phenoxy)cyclohexyl]-5-[8-[4-[(9S)-4,5,9,13-tetramethyl-3-thia-1,8,11,12-tetrazatricyclo[8.3.0.0^2,6]trideca-2 (6),4,7,10,12-pentaen-7-yl]phenyl]-2-azaspiro[4.5]decan-2-yl]pyrazine-2-carboxamide]: the 50% growth inhibitory concentration (GI50) is less than 500 nM in assay [1] (Homo sapiens, VCaP, 72 h); less than 500 nM in assay [2]; less than 500 nM in assay [3] (72 h).
`CC[C@@H]1N=C(c2ccc(C#CC3CC4(C3)CN(c3ccc(C(=O)N[C@H]5CC[C@H](Oc6ccc(C#N)c(OC)c6)CC5)nn3)C4)cc2)c2c(sc(C)c2C)-n2c(C)nnc21` [Compound I-31, N-[4-(4-cyano-3-methoxy-phenoxy)cyclohexyl]-6-[6-[2-[4-[(9S)-9-ethyl-4,5,13-trimethyl-3-thia-1,8,11,12-tetrazatricyclo[8.3.0.0^2,6]trideca-2 (6),4,7,10,12-pentaen-7-yl]phenyl]ethynyl]-2-azaspiro[3.3]heptan-2-yl]pyridazine-3-carboxamide]: the GI50 is less than 500 nM in assay [1] (Homo sapiens, VCaP, 72 h); less than 500 nM in assay [2]; less than 500 nM in assay [3] (72 h).
For the compound `COc1cc(O[C@H]2CC[C@H](NC(=O)c3ccc(N4CCC5(CCC(c6ccc(C7=N[C@@H](C)c8nnc(C)n8-c8sc(C)c(C)c87)cc6)C5)C4)nn3)CC2)ccc1C#N` (stereo partly drawn) [Compound I-96], the GI50 in assay [1] (72 hours), in assay [2] and in assay [3] was less than 500 nM in each case.
As for `COc1cc(O[C@H]2CC[C@H](NC(=O)c3ccc(N4CCC5(CCC(c6ccc(C7=N[C@@H](C)c8nnc(C)n8-c8sc(C)c(C)c87)c(Cl)c6)CC5)C4)nn3)CC2)ccc1C#N` (stereo partly drawn) [Compound I-65], the GI50 in assay [1] (Homo sapiens, VCaP, 72 h) is 500 to 1500 nM; in assay [2] it was less than 500 nM; in assay [3] (72 h) it was greater than 3000 nM.
For `COc1cc(O[C@H]2CC[C@H](NC(=O)c3ccc(N4CCC5(CCC(c6ccc(C7=N[C@@H](C)c8nnc(C)n8-c8sc(C)c(C)c87)c(C)c6)CC5)C4)nn3)CC2)ccc1C#N` (stereo partly drawn) [Compound I-63], in that order: less than 500 nM, less than 500 nM and less than 500 nM.

In general, GI50 refers to the concentration at which growth is held to half of that of the control. Higher therefore signals less potent growth inhibition.
